Measured values as given in patent publication US11179348B2, “Combination comprising pterostilbene for the treatment of cancer” (FUNDACIÓN UNIVERSIDAD CATÓLICA DE VALENCIA SAN VICENTE …, priority 2015, dated 2021).

Tests used:
[1] = tested on: glucocorticoid receptors (GR); experiment: GR content of murine B16-F1 cells by [3H]-labeled ligand whole-cell binding assay; conditions: B16-F1-RFP tumors; day 15
Method: Measurement of the GR Content of Cancer Cell Lines by [^3H]-Labeled Ligand Binding Assay. The GR content was measured by a whole-cell binding assay as previously described with some modifications (Harmon, J. M. & Thompson, E. B. […] Briefly 72 h-cultured melanoma cells were harvested, as indicated above, and resuspended in culture medium to a density of 5×10^6 cells/mL. […] Cells were then washed thrice in 5.0 mL of Hank's balanced salt solution and finally suspended in 1.5 mL of the same solution. […] The presence of at least 200-fold excess of unlabeled dexamethasone effectively competed out all of the binding of [^3H]-dexamethasone to specific GR. The binding of [^3H]-dexamethasone to specific GR was represented as the difference in disintegrations per minute per cell between those samples incubated with [^3H]-dexamethasone alone and those with at least 200-fold excess of unlabeled dexamethasone. Using the specific activity of [^3H]-dexamethasone, the number of receptors per cell was calculated, assuming that each receptor binds to one dexamethasone molecule.

HepG2 cells = experiment: GSH levels and glutathione- and oxidative stress-related enzyme activities in HepG2 cells growing in vivo; set-up: species or system human; conditions: HepG2, in vivo Pter, day 35
Method: To measure enzyme activity, isolated tumor cells were homogenized in 0.1 M phosphate buffer (pH 7.2) at 4° C. GCL and GSS activities were measured as described previously (Obrador, E. et al. Hepatology 35, 74-81 (2002)). GPX (selenium dependent) activity was measured as described by Flohé and Gunzler (Flohe, L. & Gunzler, W. A. Methods Enzymol 105, 114-121 (1984)) using H2O2 as a substrate. GSR activity was determined as described by Akerboom and Sies (Akerboom, T. P. et al, Bull Eur Physiopathol Respir 17 Suppl, 221-227 (1981)). GGT activity was measured as described previously (Obrador, E. et al. Hepatology 35, 74-81 (2002)). GST activity was measured using an assay kit from Sigma. TXNRD activity, defined by the concentration of sodium-lipoate (disulfide) reduced to dehydrolipoate (dithiol) per milligram protein, was measured as previously described (Javvadi, P. et al. Cancer Res 70, 1941-1950 (2010)). SOD activity was measured as described by Flohé and Otting (Flohe, L. & Otting, F. Methods Enzymol 105, 93-104 (1984).) using 2 mM cyanide in the assay medium to distinguish mangano-type enzyme (SOD2) from the cuprozinc type (SOD1). CAT activity was analyzed as described by Aebi (Aebi, H. Methods Enzymol 105, 121-126 (1984)). NOX activity was measured by chemiluminescence following the methodology of Wind et al. (Wind, S. et al. Comparative pharmacology of chemically distinct NADPH oxidase inhibitors. Br J Pharmacol 161, 885-898 (2010)). Protein concentration was determined with the Pierce BCA protein assay (Fisher Scientific, Waltham, Mass.).
GSH, GSSG, NADP^+ and NADPH Determination.
GSH and GSSG were determined, following procedures previously described (Obrador, E. et al. PLoS One 9, e96466 (2014)), by LC/MS using the same equipment described above for pterostilbene determination. Cell processing was performed according to published methodology, where rapid N-ethylmaleimide derivatization was used to prevent GSH auto-oxidation (Asensi, M. et al. Anal Biochem 217, 323-328 (1994)). NADP^+ and NADPH were quantitated using an assay kit from Sigma (St. Louis, Mo.).
Isolation of Tumor Cells from Mouse Xenografts Using Enzymatic Digestion and a double Ficoll gradient.
To maximize the amount of isolated cells, avoiding the use of RFP-transfected cells and subsequent laser microdissection, an alternative methodology was set up. To maximize cell yield and viability the following combination of enzymes was used: collagenase III (200 U/ml; Sigma-Aldrich), DNase I (200 U/ml; Sigma-Aldrich) and trypsin (5 mg/ml; Invitrogen), and a non-enzymatic dissociation buffer (NEDB, Invitrogen). Briefly, mice were killed, and tumors were removed (avoiding skin, muscle and fat) into cold culture media and processed immediately. The tumors were minced into 1-3 mm fragments, which were then incubated with the dissociation solution (see above) for 30 min at 37° C. The tumor fragments were mixed up and down every 10 min using a […] micropipette with a tip cut to a diameter adapted to tissue fragment size. After each incubation period, the fragments were filtered through a […] nylon mesh cell strainer (BD Biosciences, San Diego, Calif., USA). The released cells were centrifuged at 1200 r.p.m. for 2 min and stored in cold CO2-independent medium with 30% FCS at […]. Fresh dissociation solution was added to the remaining tissue fragments for 30 min. Dissociation was stopped when no additional cells were released. The fragments were pushed through a sieve and all cells from all incubation periods were pooled and counted.
The dissociated cells were layered onto a double Ficoll gradient (Histopaque; Sigma-Aldrich; densities 1.077 and 1.119) and spun at 700 g for 30 min at room temperature. Cells removed from both interfaces were pooled and washed two times in CO2-independent medium and stored at 4° C. Debris and red blood cell elimination was improved with the dual-density gradient. […]

With COc1cc(/C=C/c2ccc(O)cc2)cc(OC)c1 [Pter, trans-3,5-dimethoxy-4′-hydroxystilbene] the “GR number (binding sites/cell)” value [1] was 112 ± 16 10^3 GR/cell, the CAT (HepG2 cells) was 1.1 ± 0.3 mU/10^6 cells and the GCL (HepG2 cells) was 50 ± 15 mU/10^6 cells. For the same molecule, the GSH (HepG2 cells) was 8.5 ± 2.6 nmol/10^6 cells, the GSS (HepG2 cells) was 4.8 ± 0.9 mU/10^6 cells and the GSSG (HepG2 cells) was 0.3 ± 0.1 nmol/10^6 cells. It also gave an SOD1 (HepG2 cells) of 0.1 ± 0.02 U/10^6 cells and an SOD2 (HepG2 cells) of 0.02 ± 0.01 U/10^6 cells.
